Source: ChEMBL document CHEMBL1136703, “Leporin B: a novel hexokinase II gene inducing agent from an unidentified fungus” (Bioorg Med Chem Lett, 2003)

Tested on: L6
Test: Inhibitory concentration against induction of Hexokinase II-luci signal in the reporter cell line
Format: functional, cell-based
Settings: Rattus norvegicus

C/C=C/C1Oc2c(-c3ccccc3)cn(O)c(=O)c2C2C(C)CCCC12 (stereo unspecified)
IC50: 10 µM
